# Data taken from patent US20130053323A1, “METHODS AND USE RELATED TO HUMANIN AND HUMANIN-LIKE PEPTIDES” (priority 2009, published 2013).
# Entries after “also recorded” stand apart in the source; their conditions may differ.
# What was measured:
# IL-6 = IL-6 ELISA in culture medium of LPS-treated ATDC5 chondrocytes; assay type: cell-based, mice; details: LPS 10 μg/ml 24 hrs; combined Dexa and HNG (10 nM)
# Description: Mice chondrocyte cell line ATDC5 (1×10^6), was cultured in DMEM/Ham's F12 (Invitrogen) supplemented with 5% FCS, 10 μg/ml human transferrin and 3×10^−8 M (30 nM) sodium selenite until confluent (day 6), as previously reported (Owen, Miner et al. 2007). Thereafter, differentiation was induced by the addition of insulin (10 μg/ml; Sigma) and ascorbic acid (20 μg/ml) to the maintenance medium (differentiation medium). Incubation was at 37° C. in a humidified atmosphere of 95% air/5% CO2. The culture medium was changed every second day. On day 6, lipopolysacharide (LPS) 10 μg/ml […] Dexa (1 μM) and HNG (10 nM, S14G) were added in DMEM/Ham's F12 only and cells were incubated further 24 hrs. Next day, the cell culture medium was collected and analyzed for Intraleukin-6 (IL-6) cytokine levels by using commercially available ELISA kit (R&D Systems, Minneapolis, Minn.) according to instructions provided from manufacturer.
# FIG. 2C. […] Therefore, ATDC5 chondrocytes (mice) were cultured and treated with lipopolysacharide (LPS, 10 μg/ml) for 24 hrs to induce inflammation.
# [1] = tested on: apoptosis inducing factor (AIF) and BAX; experiment: Western immunoblotting of pro-apoptotic proteins in C5.18 chondrocytic cell line; assay type: cell-based, rat; details: 100 nM HNG/1000 nM bortezomib, 6hrs
# Description: Western immunoblotting to study protein expression was performed in the rat C5.18 chondrocytic cell line after treatment with 1000 nM CT (bortezomib) or 100 nM humanin analog HNG (S14G)/1000 nM CT (bortezomib (Btz)) for 6hrs. […] By adding humanin analog HNG (S14G), the up-regulation and activation of the two pro-apoptotic proteins were suppressed. […] As an internal control the house-keeping gene, GAPDH (35 kDa) was used. The experiment was repeated twice.
# [2] = tested on: medulloblastoma (D-283) xenograft; experiment: Tumor volume in medulloblastoma xenograft in NMRI nude mice; assay type: in vivo, human; details: bortezomib + HNG i.p., until day 13
# Description: Male NMRI nu/nu mice (B&K Scanbur, Sweden or Taconic, Denmark) were xenografted at the age of 4 weeks (BW 18-25 g). The mice were anesthetized with 2% fluothane (Zeneca Ltd, Macclesfield, UK) supplemented with 50% N2O in oxygen. Tumor cells (NB (SH-SY5Y; 20×10^6 cells/side) or MB (D-283; 10×10^6 cells/side) in 0.1 ml medium) were implanted s.c. in the hindlegs of the animal using a 23 G needle. Tumors were measured every other day with a digital caliper, starting when they were palpable. At a tumor volume of 0.1 ml or 0.15 ml the animals were randomized into groups (1. Vehicle without tumors; 2. Vehicle with tumors; 3. HNG (S14G; 1 μg/mice); 4. CT (bortezomib; 0.8 mg/kg or 1 mg/kg); 5. HNG (S14G) 1 μg/mice+CT (bortezomib; 0.8 mg/kg or 1 mg/kg), stratified by their bodyweight and treatment started. Treatment regime was the same as in clinical settings with 2 injections/week; 2 weeks treatment (see FIG. 1, Group 1). HNG (S14G) was injected 40 min before the CT (bortezomib) injection. Tumor volume was calculated by the formula 0.44×length×width×width (Wassberg, Pahlman et al. 1997). […] The animal weight and general appearance were recorded every day throughout the experiments. […] After fixation, femur and tibia were measured with digital calipers and decalcified in 5% EDTA and then paraffin embedded. […]
# [3] = tested on: fetal rat metatarsal bones; experiment: Longitudinal growth of cultured fetal rat metatarsal bones; assay type: cell-based
# Description: The three middle metatarsal bone rudiments were dissected out from the paws of 20-day-old embryos (E20) (De Luca, Barnes et al. 2001). After dissection, bones were transferred to 24-well plates, one bone per well and cultured in 0.5 ml phenol-red MEM medium supplemented with 0.2% endotoxin-free fraction BSA, […] β-glycerophosphate, 0.05 mg/ml ascorbic acid and 100 μg/ml penicillin/streptomycin at 37° C. under 5% CO2 in humidified atmosphere. Medium was changed every 2-3 days. Images were captured at days 0, 2, 5, 7, 9 and 12 of culture, using a Hamamatsu C4742-95 digital camera mounted on a Nikon SMZ-U microscope. The Image-Pro plus™ (Media Cybernetics, USA) software was used to measure longitudinal growth. Metatarsal bone growth is expressed as a percentage of the length at the day of dissection (regarded as day 0). Treatment with CT (bortezomib), dexamethasone and/or HNG (S14G) was started 2-4 hours after dissection. All isolated bones were pooled and then randomly divided into the different treatment groups (4 to 6 bones per group). Each experiment was repeated at least 3 times.
# The data shown in FIG. 2A indicates novel growth promoting/protective effects of humanin analog HNG (S14G) on longitudinal bone growth in cultured fetal rat metatarsal bones. […] Briefly, fetal rat metatarsal bones were pre-treated with different concentrations (mentioned in the figure) of HNG (S14G), 30 min prior to addition of Dexa. […] (n=4-6 bones/group)
# CT (bortezomib) is a cytotoxic drug known to cause critical alterations in cells/tissues and disturb the cellular homeostasis. To test the effect of CT (bortezomib) on chondocytes and longitudinal bone growth, the established in vitro model of fetal rat metatarsal bones was used. These bones were collected as described in material and methods, cultured and treated with different concentrations of CT (bortezomib) under sterile conditions for up to 12 days. […] Apoptosis was analyzed in whole growth plate sections of 12-day cultured rat metatarsal bones (perichondrium excluded) by applying the TUNEL technique to detect DNA fragmentation.
# In an attempt to block and prevent the negative effects on growth after CT (bortezomib)-treatment, recently discovered humanin analog HNG (S14G) was tested in vitro in fetal rat metatarsal bones.
substance,measurement,setting,value
S14G-HN (MAPRGFSCLLLLTGEIDLPVKRRA) [HNG (S14G)],effect on the anti-inflammatory effect of Dexa (IL-6 levels),IL-6,did not alter the anti-inflammatory effects of Dexa
same,bortezomib-induced up-regulation and activation of AIF and BAX,[1],suppressed
same,interference with anti-cancer effect of bortezomib (tumor volume),[2],does not interfere with the anti-cancer effect
same,bone growth by itself,"[3]; HNG alone, 100 nM, day 12, vs control",improved bone growth by itself; also recorded: trend to promote bone growth on its own
same,rescue of the growth of bones,"[3]; HNG in combination with 25 nM bortezomib, p<0.001",up to 50%
same,rescue of growth impairment,[3]; HNG with bortezomib 50 nM and above,not able to rescue the growth impairment
same,rescue from Dexa-induced growth retardation,[3]; different doses of HNG added 30 min prior to Dexa 1 μM,significantly rescued the bones from Dexa-induced growth retardation
